Here are results for 8 molecules from patent US9260400B2, “I-arylpiperazinic ligands of 5-HT7 receptor and use thereof” (UNIVERSITA' DEGLI STUDI DI BARI “ALDO MORO”, priority 2011, dated 2016).

The conditions of data set [1]: after 20 minutes following i.p injection; cited from earlier work.
Data set [2] in a line: In vitro metabolic stability using liver S9 fractions. The format is in vitro ADME. As to conditions: 10 μM compound, 1 mg/ml rat liver S9, 30 min at 37° C. The method, then:
Determination of in vitro Metabolic Stability Using Liver S9 Fractions
Tested compounds (10 μM) were incubated with rat liver S9 fractions (1 mg/ml), liver S9 fractions are subcellular fractions that contain drug-metabolizing enzymes such as cytochromes P450, flavin monooxygenases, and UDP glucuronyl transferases.
The incubation was performed in 100 mM phosphate buffer (pH 7.4) containing 1.3 mM of NADP+, 3.3 mM glucose 6-phosphate and 0.4 U/ml glucose 6-phosphate dehydrogenase, 3.3 mM MgCl2 in a total volume of 1 mL. Incubations were commenced with the addition of glucose 6-phosphate dehygrogenase and carried out for 30 min. at 37° C. The reaction was stopped by adding 1 mL of cooled acetonitrile. The samples were centrifuged at 4600 rpm for 10 min at 4° C. The supernatant was separated and the acetonitrile phase was analyzed by using a reversed-phase HPLC equipped with a Perkin-Elmer series 200 LC pump and a Perkin-Elmer 785A UV/VIS detector. UV signals were monitored and obtained peaks integrated using a personal computer running Perkin-Elmer Turbochrom Software. The column used was a Phenomenex Gemini C-18 (250×4.6 mm, 5 μm particle size). The samples were eluted with ammonium formate (20 mM; pH 6.7) and acetonitrile 80:20 v/v at a flow rate of 1 mL/min and at the appropriate UV wavelength. The sample injection volume was 20 μL.
This assay provides information on the xenobiotic metabolism of the tested compounds; the results obtained are reported in table 1.

In data set [3] the target is T1, Human 5-HT1A serotonin receptors (Homo sapiens, UniProt P08908).
T1 construct: expressed in transfected cells; host or cells: HEK293-EBNA
T1 sequence (P08908 1-422): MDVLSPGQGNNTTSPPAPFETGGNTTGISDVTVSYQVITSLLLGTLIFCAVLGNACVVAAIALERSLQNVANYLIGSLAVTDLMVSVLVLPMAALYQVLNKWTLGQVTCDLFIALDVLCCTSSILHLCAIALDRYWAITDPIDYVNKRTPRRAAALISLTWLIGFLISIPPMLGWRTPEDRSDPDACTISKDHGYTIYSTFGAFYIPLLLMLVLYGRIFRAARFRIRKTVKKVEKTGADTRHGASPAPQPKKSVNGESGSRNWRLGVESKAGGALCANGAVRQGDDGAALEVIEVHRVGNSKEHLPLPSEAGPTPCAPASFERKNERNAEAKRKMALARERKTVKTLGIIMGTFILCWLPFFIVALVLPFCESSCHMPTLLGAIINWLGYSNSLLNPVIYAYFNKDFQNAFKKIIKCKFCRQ
The data set can be described thus: Radioligand binding assay at human cloned 5-HT1A receptor ([3H]-8-OH-DPAT). As to conditions: compound at 10−7M. On the procedure: Radioligand Binding Assay At Human Cloned 5-HT1A Receptor
Human 5-HT1A serotonin receptors stably expressed in HEK293-EBNA cells were radiolabeled with 1.0 nM [^3H]-8-OH-DPAT [J. Biol. Chem. 1989, 264, 14848]. Samples containing 32 μg of membrane protein, different concentrations of each compound ranging from 0.1 nM to 10 μM were incubated in a final volume of 500 μL of 50 mM Tris-HCl pH 7.4, 5 mM MgSO4 for 120 min at […]. After this incubation time, samples were filtered through Whatman GF/C glass microfiber filters pre-soaked in polyethylenimine 0.5% for at least 30 min prior to use. The filters were washed twice with 1 ml of ice-cold buffer (50 mM Tris-HCl, pH 7.4). Nonspecific binding was determined in the presence of 10 μM 5-HT.
(§1) Competition binding data were analyzed using the GraphPad Prism Software (GraphPad Software, Inc., San Diego, Calif., USA). The value for the inhibition constant, Ki, was calculated by using the Cheng-Prusoff equation [Anal. Biochem. 1980, 107, 200-239].

The target in data set [4] is T2, human cloned 5-HT7 receptor (Homo sapiens, UniProt P34969).
T2 construct: expressed in transfected cells
The data set can be described thus: Radioligand binding assay at human cloned 5-HT7 receptors ([3H]-5-CT competition). As to conditions: read-out: 5-HT7 (pKi) (converted). The method, then:
Radioligand Binding Assay At Human Cloned 5-HT7 Receptors
Functionality assays on the 5-HT7 receptor were done according to Jasper et al [Br. J. Pharmacol. 1997, 122, 126.] with minor modifications. The test is a competition assay based on binding of [^3H]-5-CT at human cloned 5-HT7 receptor. In 0.5 mL of incubation buffer (50 mM Tris-HCl, 10 mM MgSO4 and 0.5 mM EDTA, pH 7.4) were suspended 34 μg of membranes, 1.5 nM [^3H]-5-CT, the drugs or reference compound (six to nine concentrations). The samples were incubated for 120 min at 27° C. The incubation was stopped by rapid filtration on Whatman GF/C glass microfiber filters (pre-soaked in 0.3% polyethylenimine for 30 min). The filters were washed with 3×1 mL of ice-cold buffer (50 mM Tris-HCl, pH 7.4). Nonspecific binding was determined in the presence of 10 μM 5-CT. Approximately 90% of specific binding was determined under these conditions.
as §1

T2 sequence (P34969 whole entry): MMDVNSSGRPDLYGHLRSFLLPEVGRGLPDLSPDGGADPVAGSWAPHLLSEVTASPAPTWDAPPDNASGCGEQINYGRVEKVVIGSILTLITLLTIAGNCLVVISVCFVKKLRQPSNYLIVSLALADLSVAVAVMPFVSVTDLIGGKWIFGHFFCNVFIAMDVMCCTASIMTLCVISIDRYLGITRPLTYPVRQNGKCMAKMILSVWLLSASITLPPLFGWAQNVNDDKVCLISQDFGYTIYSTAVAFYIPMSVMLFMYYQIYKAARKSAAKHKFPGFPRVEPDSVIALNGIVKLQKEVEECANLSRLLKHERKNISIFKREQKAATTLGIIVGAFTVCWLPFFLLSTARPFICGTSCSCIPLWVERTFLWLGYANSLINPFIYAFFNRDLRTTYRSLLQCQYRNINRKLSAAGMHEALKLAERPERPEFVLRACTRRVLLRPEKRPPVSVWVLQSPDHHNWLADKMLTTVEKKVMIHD

Consider `CSc1ccccc1N1CCN(CCCCCC(=O)NC2CCCc3ccccc32)CC1` (stereo not shown) [LP-44], for which, in data set [1], the “plasma and brain concentration” value is given as “undetectable”.

As for `COc1ccc(CNC(=O)CCCCCN2CCN(c3ncccc3-c3ccccn3)CC2)cc1` [Example 24, N-[(4-Methoxyphenyl)methyl]-6-[4-[3-(2-pyridyl)-2-pyridyl]piperazin-1-yl]hexanamide], the “% parent compound after incubation with rat liver S9 fractions” value in data set [2] worked out at 80%. In addition, in data set [3], the “5-HT1A (% displacement of radioligand at 10−7M conc.)” value is on record as 31%. In addition, the Ki in data set [4] was 5.75 nM.

Consider `COc1cccc(C(F)CN2CCN(c3ncccc3-c3ccccn3)CC2)c1` (stereo not shown) [Example 12, 1-[2-Fluoro-2-(3-methoxyphenyl)ethyl]-4-[3-(2-pyridyl)-2-pyridyl)piperazine], for which the “% parent compound after incubation with rat liver S9 fractions” value in data set [2] is reported as 84%. In addition, in data set [3], the “5-HT1A (% displacement of radioligand at 10−7M conc.)” value stood at 25%. Moreover, the Ki in data set [4] is 6.92 nM.

In the case of `FCCOc1ccc(OCCN2CCN(c3ncccc3-c3ccccn3)CC2)cc1` [Example 18, 1-[2-[4-(2-Fluoroethoxy)phenoxy]ethyl]-4-[3-(2-pyridyl)-2-pyridyl]piperazine], the “% parent compound after incubation with rat liver S9 fractions” value in data set [2] was 68%. The “5-HT1A (% displacement of radioligand at 10−7M conc.)” value in data set [3] stood at 20%. Besides, the Ki in data set [4] is 20 nM.

Take `COc1ccc(OCC(O)CN2CCN(c3ncccc3-c3ccncc3)CC2)cc1` (stereo not shown) [Example 5, 1-(4-Methoxyphenoxy)-3-[4-[3-(4-pyridyl)-2-pyridyl]piperazin-1-yl]propan-2-ol]: the “% parent compound after incubation with rat liver S9 fractions” value in data set [2] is 82%. For the same molecule, in data set [3], the “5-HT1A (% displacement of radioligand at 10−7M conc.)” value is 26%. In data set [4], the Ki is 7.59 nM.

As to `COc1ccc(OCC(O)CN2CCN(c3ccccc3-c3ccccc3)CC2)cc1` (stereo not shown) [Example 1, 1-(4-Methoxyphenoxy)-3-[4-(2-biphenyl)piperazin-1-yl] propan-2-ol], the “% parent compound after incubation with rat liver S9 fractions” value in data set [2] is 35%. Further, in data set [3], the “5-HT1A (% displacement of radioligand at 10−7M conc.)” value came out at 46%. Moreover, the Ki in data set [4] was 16.6 nM.

`COc1cccc(OCCN2CCN(c3ncccc3-c3ccccn3)CC2)c1` [Example 15, 1-[2-(3-Methoxyphenoxy)ethyl]4-[3-(2-pyridyl)-2-pyridyl]piperazine]: in data set [2], the “% parent compound after incubation with rat liver S9 fractions” value was 78%. In addition, the “5-HT1A (% displacement of radioligand at 10−7M conc.)” value in data set [3] worked out at 35%. Further, in data set [4], the Ki was 5.37 nM.

Take `COc1ccc(-c2ccccc2N2CCN(CCCCCC(=O)NCc3ccccn3)CC2)cc1` [Example 21, 4-[2-(4-Methoxyphenyl)phenyl]-N-(2-pyridinylmethyl)-1-piperazinehexanamide]: the “% parent compound after incubation with rat liver S9 fractions” value in data set [2] was 55%. The “5-HT1A (% displacement of radioligand at 10−7M conc.)” value in data set [3] is reported as 37%. Moreover, the Ki in data set [4] was 1.62 nM.
